In ChEMBL document CHEMBL4507281, “Data for DCP probe BI-4394” (2021):

How the values were obtained:
[1] = target: Ankyrin repeat and protein kinase domain-containing protein 1 (Homo sapiens) (UniProt Q8NFD2); settings: Compound concentration 100.0 nM
[2] = target: Mitogen-activated protein kinase kinase kinase 6 (Homo sapiens) (UniProt O95382); settings: Compound concentration 100.0 nM
[3] = target: Cyclin-dependent kinase 11B (Homo sapiens) (UniProt P21127); settings: Compound concentration 100.0 nM
[4] = target: Cyclin-dependent kinase 8 (Homo sapiens) (UniProt P49336); settings: Compound concentration 100.0 nM
[5] = target: Cyclin-dependent kinase-like 2 (Homo sapiens) (UniProt Q92772); settings: Compound concentration 100.0 nM
[6] = target: Cyclin-dependent kinase-like 5 (Homo sapiens) (UniProt O76039); settings: Compound concentration 100.0 nM
[7] = target: Casein kinase I isoform gamma-1 (Homo sapiens) (UniProt Q9HCP0); settings: Compound concentration 100.0 nM
[8] = target: Serine/threonine-protein kinase DCLK1 (Homo sapiens) (UniProt O15075); settings: Compound concentration 100.0 nM
[9] = target: Serine/threonine-protein kinase DCLK2 (Homo sapiens) (UniProt Q8N568); settings: Compound concentration 100.0 nM
[10] = target: Serine/threonine-protein kinase MRCK gamma (Homo sapiens) (UniProt Q6DT37); settings: Compound concentration 100.0 nM
[11] = target: Dual specificity tyrosine-phosphorylation-regulated kinase 2 (Homo sapiens) (UniProt Q92630); settings: Compound concentration 100.0 nM
[12] = test system: Epidermal growth factor receptor (Homo sapiens), P00533 [UNDEFINED MUTATION]; settings: Compound concentration 100.0 nM
[13] = target: Ephrin type-A receptor 1 (Homo sapiens) (UniProt P21709); settings: Compound concentration 100.0 nM
[14] = target: Receptor tyrosine-protein kinase erbB-4 (Homo sapiens) (UniProt Q15303); settings: Compound concentration 100.0 nM
[15] = target: Mitogen-activated protein kinase 3 (Homo sapiens) (UniProt P27361); settings: Compound concentration 100.0 nM
[16] = target: Serine/threonine-protein kinase/endoribonuclease IRE1 (Homo sapiens) (UniProt O75460); settings: Compound concentration 100.0 nM
[17] = test system: Receptor-type tyrosine-protein kinase FLT3 (Homo sapiens), P36888 [D835H]; settings: Compound concentration 100.0 nM
[18] = test system: Receptor-type tyrosine-protein kinase FLT3 (Homo sapiens), P36888 [N841I]; settings: Compound concentration 100.0 nM
[19] = test system: eIF-2-alpha kinase GCN2 (Homo sapiens), Q9P2K8 [S808G]; settings: Compound concentration 100.0 nM
[20] = target: Rhodopsin kinase GRK1 (Homo sapiens) (UniProt Q15835); settings: Compound concentration 100.0 nM
[21] = target: Serine/threonine-protein kinase haspin (Homo sapiens) (UniProt Q8TF76); settings: Compound concentration 100.0 nM
[22] = target: Tyrosine-protein kinase ITK/TSK (Homo sapiens) (UniProt Q08881); settings: Compound concentration 100.0 nM
[23] = target: Mitogen-activated protein kinase 9 (Homo sapiens) (UniProt P45984); settings: Compound concentration 100.0 nM
[24] = test system: Mast/stem cell growth factor receptor Kit (Homo sapiens), P10721 [D816H]; settings: Compound concentration 100.0 nM
[25] = target: Mitogen-activated protein kinase kinase kinase 15 (Homo sapiens) (UniProt Q6ZN16); settings: Compound concentration 100.0 nM
[26] = target: Dual specificity mitogen-activated protein kinase kinase 5 (Homo sapiens) (UniProt Q13163); settings: Compound concentration 100.0 nM
[27] = target: Maternal embryonic leucine zipper kinase (Homo sapiens) (UniProt Q14680); settings: Compound concentration 100.0 nM
[28] = target: Serine/threonine-protein kinase Nek6 (Homo sapiens) (UniProt Q9HC98); settings: Compound concentration 100.0 nM
[29] = target: Serine/threonine-protein kinase PAK 6 (Homo sapiens) (UniProt Q9NQU5); settings: Compound concentration 100.0 nM
[30] = target: Calcium-dependent protein kinase 1 (Plasmodium falciparum) (UniProt P62344); settings: Compound concentration 100.0 nM
[31] = target: Phosphatidylinositol 4-phosphate 3-kinase C2 domain-containing subunit beta (Homo sapiens) (UniProt O00750); settings: Compound concentration 100.0 nM
[32] = target: Serine/threonine-protein kinase pim-2 (Homo sapiens) (UniProt Q9P1W9); settings: Compound concentration 100.0 nM
[33] = target: Ribosomal protein S6 kinase alpha-6 (Homo sapiens) (UniProt Q9UK32); settings: Compound concentration 100.0 nM
[34] = target: Tyrosine-protein kinase Srms (Homo sapiens) (UniProt Q9H3Y6); settings: Compound concentration 100.0 nM
[35] = target: Serine/threonine-protein kinase 16 (Homo sapiens) (UniProt O75716); settings: Compound concentration 100.0 nM
[36] = target: Tyrosine-protein kinase receptor Tie-1 (Homo sapiens) (UniProt P35590); settings: Compound concentration 100.0 nM
[37] = target: Serine/threonine-protein kinase tousled-like 2 (Homo sapiens) (UniProt Q86UE8); settings: Compound concentration 100.0 nM
[38] = target: Serine/threonine-protein kinase ULK1 (Homo sapiens) (UniProt O75385); settings: Compound concentration 100.0 nM
[39] = target: Serine/threonine-protein kinase WNK3 (Homo sapiens) (UniProt Q9BYP7); settings: Compound concentration 100.0 nM
[40] = target: Serine/threonine-protein kinase 32B (Homo sapiens) (UniProt Q9NY57); settings: Compound concentration 100.0 nM
[41] = target: Serine/threonine-protein kinase 25 (Homo sapiens) (UniProt O00506); settings: Compound concentration 100.0 nM
[42] = target: 5-hydroxytryptamine receptor 1D (Homo sapiens) (UniProt P28221); settings: Compound concentration 10.0 uM
[43] = target: Sodium-dependent serotonin transporter (Homo sapiens) (UniProt P31645); settings: Compound concentration 10.0 uM
[44] = target: Alpha-2B adrenergic receptor (Homo sapiens) (UniProt P18089); settings: Compound concentration 10.0 uM
[45] = target: Muscarinic acetylcholine receptor M4 (Homo sapiens) (UniProt P08173); settings: Compound concentration 10.0 uM
Muscarinic acetylcholine receptor M4 (Homo sapiens), sequence (P08173 whole entry): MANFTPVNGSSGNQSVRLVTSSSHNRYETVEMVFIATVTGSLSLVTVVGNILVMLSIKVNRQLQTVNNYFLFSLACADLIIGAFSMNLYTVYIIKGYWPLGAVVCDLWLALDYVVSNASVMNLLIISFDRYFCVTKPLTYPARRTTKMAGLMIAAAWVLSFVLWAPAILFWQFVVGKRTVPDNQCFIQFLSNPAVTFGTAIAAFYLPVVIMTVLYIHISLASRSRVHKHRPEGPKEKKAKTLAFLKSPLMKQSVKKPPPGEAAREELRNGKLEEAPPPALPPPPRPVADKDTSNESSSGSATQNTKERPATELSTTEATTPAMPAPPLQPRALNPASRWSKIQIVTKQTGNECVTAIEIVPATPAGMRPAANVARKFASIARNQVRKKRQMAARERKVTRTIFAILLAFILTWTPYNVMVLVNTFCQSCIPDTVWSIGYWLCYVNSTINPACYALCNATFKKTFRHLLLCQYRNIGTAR

Sodium-dependent serotonin transporter (Homo sapiens), sequence (P31645 whole entry, looked up): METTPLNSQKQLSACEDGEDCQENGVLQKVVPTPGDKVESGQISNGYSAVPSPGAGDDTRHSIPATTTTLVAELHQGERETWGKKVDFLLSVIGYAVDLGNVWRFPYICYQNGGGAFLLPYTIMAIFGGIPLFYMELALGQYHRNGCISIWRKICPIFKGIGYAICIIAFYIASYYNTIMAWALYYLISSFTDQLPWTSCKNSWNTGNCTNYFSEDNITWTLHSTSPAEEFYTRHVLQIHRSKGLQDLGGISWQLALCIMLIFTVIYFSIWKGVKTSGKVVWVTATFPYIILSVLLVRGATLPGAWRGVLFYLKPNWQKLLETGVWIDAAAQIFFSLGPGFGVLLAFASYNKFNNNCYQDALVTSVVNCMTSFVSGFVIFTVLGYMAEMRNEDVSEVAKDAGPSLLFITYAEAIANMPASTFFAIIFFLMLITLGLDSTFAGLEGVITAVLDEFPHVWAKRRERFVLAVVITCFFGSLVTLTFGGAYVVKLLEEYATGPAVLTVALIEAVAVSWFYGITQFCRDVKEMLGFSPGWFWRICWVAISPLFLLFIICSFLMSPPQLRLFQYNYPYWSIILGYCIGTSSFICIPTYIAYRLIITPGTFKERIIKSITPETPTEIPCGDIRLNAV
Receptor tyrosine-protein kinase erbB-4 (Homo sapiens), sequence (Q15303 whole entry): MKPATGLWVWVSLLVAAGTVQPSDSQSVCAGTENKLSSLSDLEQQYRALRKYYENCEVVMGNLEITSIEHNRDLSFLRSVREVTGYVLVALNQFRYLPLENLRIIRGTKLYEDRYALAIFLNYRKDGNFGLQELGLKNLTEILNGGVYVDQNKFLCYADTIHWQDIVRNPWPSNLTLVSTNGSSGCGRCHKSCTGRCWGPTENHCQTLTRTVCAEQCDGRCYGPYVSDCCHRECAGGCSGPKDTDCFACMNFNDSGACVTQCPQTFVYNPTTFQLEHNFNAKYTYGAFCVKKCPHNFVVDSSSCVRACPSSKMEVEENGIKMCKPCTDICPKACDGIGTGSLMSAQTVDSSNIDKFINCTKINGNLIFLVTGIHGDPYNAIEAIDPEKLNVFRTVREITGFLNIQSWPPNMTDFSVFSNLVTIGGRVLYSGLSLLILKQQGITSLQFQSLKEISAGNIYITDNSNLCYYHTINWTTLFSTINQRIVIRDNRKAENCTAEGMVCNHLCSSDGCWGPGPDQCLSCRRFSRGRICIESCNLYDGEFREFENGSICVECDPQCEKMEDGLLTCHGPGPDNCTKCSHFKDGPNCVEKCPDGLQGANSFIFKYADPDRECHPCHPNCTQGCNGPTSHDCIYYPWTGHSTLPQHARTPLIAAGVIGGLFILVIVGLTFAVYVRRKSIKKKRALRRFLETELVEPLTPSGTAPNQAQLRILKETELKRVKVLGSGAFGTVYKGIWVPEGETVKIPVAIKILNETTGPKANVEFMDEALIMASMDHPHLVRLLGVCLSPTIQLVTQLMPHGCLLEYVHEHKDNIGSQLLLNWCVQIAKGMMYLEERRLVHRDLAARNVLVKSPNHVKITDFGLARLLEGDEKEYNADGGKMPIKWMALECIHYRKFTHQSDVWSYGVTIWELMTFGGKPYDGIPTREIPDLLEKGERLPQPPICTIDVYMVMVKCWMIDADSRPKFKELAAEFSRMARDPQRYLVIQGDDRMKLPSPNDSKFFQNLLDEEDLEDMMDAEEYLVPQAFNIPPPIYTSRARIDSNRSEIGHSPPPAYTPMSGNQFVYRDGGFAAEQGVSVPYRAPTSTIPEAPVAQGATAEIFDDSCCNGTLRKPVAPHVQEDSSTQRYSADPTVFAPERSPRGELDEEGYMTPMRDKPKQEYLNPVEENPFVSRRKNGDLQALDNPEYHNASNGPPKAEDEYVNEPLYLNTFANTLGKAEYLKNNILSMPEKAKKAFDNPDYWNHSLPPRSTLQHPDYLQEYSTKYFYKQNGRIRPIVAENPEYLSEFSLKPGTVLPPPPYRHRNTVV
Serine/threonine-protein kinase 25 (Homo sapiens), sequence (O00506 whole entry, looked up): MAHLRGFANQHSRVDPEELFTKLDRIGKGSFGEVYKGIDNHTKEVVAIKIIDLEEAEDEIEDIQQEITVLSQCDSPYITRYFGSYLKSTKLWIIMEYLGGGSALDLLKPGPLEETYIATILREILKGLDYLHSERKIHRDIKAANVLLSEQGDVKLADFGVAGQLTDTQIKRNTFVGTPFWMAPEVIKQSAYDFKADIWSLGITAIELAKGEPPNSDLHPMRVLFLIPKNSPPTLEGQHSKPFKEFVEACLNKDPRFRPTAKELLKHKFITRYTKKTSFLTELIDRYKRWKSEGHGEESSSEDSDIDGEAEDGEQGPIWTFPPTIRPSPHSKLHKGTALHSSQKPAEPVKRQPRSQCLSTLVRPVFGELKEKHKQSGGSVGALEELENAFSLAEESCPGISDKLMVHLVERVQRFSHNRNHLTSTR
Epidermal growth factor receptor (Homo sapiens), P00533 [UNDEFINED MUTATION], sequence (P00533 whole entry, looked up, change not shown): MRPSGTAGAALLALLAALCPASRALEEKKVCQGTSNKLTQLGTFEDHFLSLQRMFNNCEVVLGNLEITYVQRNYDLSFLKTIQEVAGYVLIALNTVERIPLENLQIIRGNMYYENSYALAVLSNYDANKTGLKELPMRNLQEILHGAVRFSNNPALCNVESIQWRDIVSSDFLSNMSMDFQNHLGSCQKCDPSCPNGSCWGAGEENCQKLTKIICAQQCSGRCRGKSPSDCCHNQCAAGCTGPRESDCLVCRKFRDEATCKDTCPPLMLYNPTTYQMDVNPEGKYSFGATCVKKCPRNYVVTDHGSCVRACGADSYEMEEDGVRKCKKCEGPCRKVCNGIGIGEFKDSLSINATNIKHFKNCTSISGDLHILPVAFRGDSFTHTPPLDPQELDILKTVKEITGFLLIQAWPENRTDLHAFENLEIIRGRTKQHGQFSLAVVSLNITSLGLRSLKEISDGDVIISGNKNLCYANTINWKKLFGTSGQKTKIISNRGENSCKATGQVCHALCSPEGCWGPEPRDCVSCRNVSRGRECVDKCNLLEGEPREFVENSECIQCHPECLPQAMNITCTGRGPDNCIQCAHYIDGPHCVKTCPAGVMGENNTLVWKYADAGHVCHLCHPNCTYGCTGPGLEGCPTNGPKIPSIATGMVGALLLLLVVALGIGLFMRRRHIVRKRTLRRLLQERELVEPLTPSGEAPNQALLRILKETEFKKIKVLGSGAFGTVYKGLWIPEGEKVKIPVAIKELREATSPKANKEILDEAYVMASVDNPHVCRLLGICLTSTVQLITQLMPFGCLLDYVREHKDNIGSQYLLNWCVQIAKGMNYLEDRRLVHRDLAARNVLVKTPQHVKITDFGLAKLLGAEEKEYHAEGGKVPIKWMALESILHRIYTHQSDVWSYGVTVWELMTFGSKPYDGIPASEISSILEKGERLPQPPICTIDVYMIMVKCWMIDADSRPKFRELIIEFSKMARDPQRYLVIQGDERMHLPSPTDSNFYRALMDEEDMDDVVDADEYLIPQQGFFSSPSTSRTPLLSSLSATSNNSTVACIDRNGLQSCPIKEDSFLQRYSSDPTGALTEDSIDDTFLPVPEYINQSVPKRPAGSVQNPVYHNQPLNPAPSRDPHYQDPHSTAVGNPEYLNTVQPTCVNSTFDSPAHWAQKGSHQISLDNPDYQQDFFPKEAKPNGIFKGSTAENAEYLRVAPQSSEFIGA
Cyclin-dependent kinase 8 (Homo sapiens), sequence (P49336 whole entry): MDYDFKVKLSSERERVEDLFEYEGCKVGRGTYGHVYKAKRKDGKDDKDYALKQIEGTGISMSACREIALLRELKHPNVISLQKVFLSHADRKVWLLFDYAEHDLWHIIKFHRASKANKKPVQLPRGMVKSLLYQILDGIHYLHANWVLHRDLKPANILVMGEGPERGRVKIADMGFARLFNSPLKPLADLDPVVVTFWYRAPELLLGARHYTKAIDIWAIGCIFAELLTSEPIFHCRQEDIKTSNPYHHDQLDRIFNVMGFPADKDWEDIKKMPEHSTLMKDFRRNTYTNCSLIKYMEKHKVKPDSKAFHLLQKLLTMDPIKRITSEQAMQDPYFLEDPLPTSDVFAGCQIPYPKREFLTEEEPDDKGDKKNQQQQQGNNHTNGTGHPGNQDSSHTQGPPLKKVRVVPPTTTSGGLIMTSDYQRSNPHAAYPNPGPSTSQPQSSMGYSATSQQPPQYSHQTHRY
Casein kinase I isoform gamma-1 (Homo sapiens), sequence (Q9HCP0 whole entry, looked up, canonical isoform): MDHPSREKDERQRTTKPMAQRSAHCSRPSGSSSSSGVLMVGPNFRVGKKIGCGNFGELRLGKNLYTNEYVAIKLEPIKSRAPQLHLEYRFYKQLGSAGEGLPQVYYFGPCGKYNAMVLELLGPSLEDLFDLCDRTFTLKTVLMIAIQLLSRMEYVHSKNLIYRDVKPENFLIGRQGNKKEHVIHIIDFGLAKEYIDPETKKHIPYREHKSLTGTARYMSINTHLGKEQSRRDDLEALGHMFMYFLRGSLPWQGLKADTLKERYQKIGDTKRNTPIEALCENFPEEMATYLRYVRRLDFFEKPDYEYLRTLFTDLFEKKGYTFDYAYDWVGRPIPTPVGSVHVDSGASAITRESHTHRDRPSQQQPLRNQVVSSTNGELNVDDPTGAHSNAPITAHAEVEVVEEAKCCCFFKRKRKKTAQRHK

**Q.** What does the source list for `CCOC(=O)c1cc2cc(-c3cc(C(=O)NCc4ccc(C(=O)O)cc4)nn3C)ccc2[nH]1` [BI 4394]?
**A.** residual activity [1]: 100%; residual activity [2]: 79%; residual activity [3]: 98%; residual activity [4]: 62%; residual activity [5]: 88%; residual activity [6]: 87%; residual activity [7]: 100%; residual activity [8]: 86%; residual activity [9]: 100%; residual activity [10]: 93%; residual activity [11]: 76%; residual activity [12]: 94%; residual activity [13]: 100%; residual activity [14]: 96%; residual activity [15]: 88%; residual activity [16]: 90%; residual activity [17]: 100%; residual activity [18]: 81%; residual activity [19]: 100%; residual activity [20]: 95%; residual activity [21]: 77%; residual activity [22]: 100%; residual activity [23]: 96%; residual activity [24]: 75%; residual activity [25]: 100%; residual activity [26]: 82%; residual activity [27]: 100%; residual activity [28]: 95%; residual activity [29]: 99%; residual activity [30]: 100%; residual activity [31]: 93%; residual activity [32]: 96%; residual activity [33]: 93%; residual activity [34]: 90%; residual activity [35]: 78%; residual activity [36]: 76%; residual activity [37]: 93%; residual activity [38]: 87%; residual activity [39]: 96%; residual activity [40]: 92%; residual activity [41]: 100%; inhibition [42]: 3.64%; inhibition [43]: -0.14%; inhibition [44]: 16.4%; inhibition [45]: -6.49%

**Q.** Which residual activity [1] does the source give for `Cn1nc(C(=O)NCc2ccc(C(=O)O)cc2)cc1-c1ccc2[nH]ccc2c1` [BI 4395] here?
**A.** The residual activity was 100%.

**Q.** And the residual activity [2]?
**A.** The residual activity was 88%.

**Q.** And the residual activity [3]?
**A.** The residual activity was 93%.

**Q.** What about the residual activity [4] of the same molecule?
**A.** Its residual activity is 100%.

**Q.** And the residual activity [5]?
**A.** Its residual activity is 78%.

**Q.** What about the residual activity [6] of the same molecule?
**A.** The residual activity was 85%.

**Q.** And the residual activity [7]?
**A.** The residual activity was 91%.

**Q.** What about the residual activity [8] of the same molecule?
**A.** The residual activity was 88%.

**Q.** And the residual activity [9]?
**A.** The residual activity was 92%.

**Q.** What about the residual activity [10] of the same molecule?
**A.** Its residual activity is 100%.

**Q.** And the residual activity [11]?
**A.** Its residual activity is 100%.

**Q.** What about the residual activity [12] of the same molecule?
**A.** Its residual activity is 92%.

**Q.** And the residual activity [13]?
**A.** Its residual activity is 95%.

**Q.** What about the residual activity [14] of the same molecule?
**A.** Its residual activity is 98%.

**Q.** What about the residual activity [15] of the same molecule?
**A.** The residual activity was 94%.

**Q.** What about the residual activity [16] of the same molecule?
**A.** The residual activity was 83%.

**Q.** And the residual activity [17]?
**A.** Its residual activity is 46%.

**Q.** And the residual activity [18]?
**A.** The residual activity was 100%.

**Q.** What about the residual activity [19] of the same molecule?
**A.** The residual activity was 94%.

**Q.** What about the residual activity [20] of the same molecule?
**A.** Its residual activity is 100%.

**Q.** And the residual activity [21]?
**A.** The residual activity was 77%.

**Q.** What about the residual activity [22] of the same molecule?
**A.** The residual activity was 85%.

**Q.** And the residual activity [23]?
**A.** Its residual activity is 60%.

**Q.** And the residual activity [24]?
**A.** Its residual activity is 81%.

**Q.** And the residual activity [25]?
**A.** The residual activity was 91%.

**Q.** And the residual activity [26]?
**A.** Its residual activity is 63%.

**Q.** What about the residual activity [27] of the same molecule?
**A.** Its residual activity is 86%.

**Q.** What about the residual activity [28] of the same molecule?
**A.** Its residual activity is 91%.

**Q.** And the residual activity [29]?
**A.** Its residual activity is 96%.

**Q.** And the residual activity [30]?
**A.** Its residual activity is 73%.

**Q.** And the residual activity [31]?
**A.** Its residual activity is 78%.

**Q.** What about the residual activity [32] of the same molecule?
**A.** Its residual activity is 81%.

**Q.** And the residual activity [33]?
**A.** Its residual activity is 85%.

**Q.** And the residual activity [34]?
**A.** Its residual activity is 81%.

**Q.** What about the residual activity [35] of the same molecule?
**A.** Its residual activity is 86%.

**Q.** And the residual activity [36]?
**A.** Its residual activity is 93%.

**Q.** What about the residual activity [37] of the same molecule?
**A.** Its residual activity is 89%.

**Q.** What about the residual activity [38] of the same molecule?
**A.** The residual activity was 83%.

**Q.** What about the residual activity [39] of the same molecule?
**A.** Its residual activity is 67%.

**Q.** What about the residual activity [40] of the same molecule?
**A.** Its residual activity is 100%.

**Q.** And the residual activity [41]?
**A.** Its residual activity is 91%.

**Q.** And the inhibition [42]?
**A.** Its inhibition is 10.1%.

**Q.** And the inhibition [43]?
**A.** The inhibition was 5.3%.

**Q.** And the inhibition [44]?
**A.** Its inhibition is 6%.

**Q.** And the inhibition [45]?
**A.** The inhibition was 0.05%.
